In brackets after ≈: the same amount, converted by molar mass.
Tests used:
[1] = test system: DT-R cells (pRRE3-luc-transfected v-ki-ras-transformed NIH3T3 cells); signal derived from Ras oncogene products; assay: Inhibitory effect against cellular signaling derived from Ras oncogene products: luciferase reporter, dissociation of DT-R from DT-C activity (MAC); assay type: cell-based, mouse; conditions: minimal tested concentration at which luciferase activities of DT-C cells and DT-R cells dissociated
Description: Test Example 1 Inhibitory Effect Against Cellular Signaling Derived From Ras Oncogene Products
1) Establishment of Cell Lines Used in Assay
Based on the reporter plasmid (pGV-P (Toyo Ink, Japan)), in which luciferase gene was ligated to SV40-derived minimal promoter, we constructed a plasmid designated pRRE3-luc by inserting 3 copies of chemically synthesized oligonucleotides (Sequence: CAGGATATGACTCT, derived from mouse NVL-3 (M. A. Reddy et al.(1992)Mol. Endocrinol., 6, 1051)) into upstream of the promoter. v-ki-ras-transformed NIH3T3 cells (DT cells, provided by Dr. Makoto Noda (Kyoto Univ., School of medicine)) were transfected with this plasmid by liposome-mediated transfection and transfected cell lines stably incorporated and maintained each plasmid were obtained. We named pGV-P and pRRE3-transfected cell line as DT-C and DT-R, respectively and used in the assay described below.
2) Preparation of Samples
i) All the cell lines were cultured in Dulbecco's Modified Essential Medium (DMEM: 10% Fetal Calf Serum(FCS: Hyclone, USA)) including […] kanamycin (Meiji Seika, Japan) in humidified incubator under condition of 5% CO2 at 37° C.
ii) DT-C and DT-R cells were seeded at 2500 cells/well into flat-bottom 96 well multiplate (Sumitomo bakelite) and incubated for 24 hours.
iii) Test compounds were prepared as 1 mg/ml DMSO solution.
iv) The solution of test compounds were added to the culture. Tested compounds are used at the concentration from […] to 0.51 ng/ml with by 3-fold dilution.
v) After 24 hours, the culture supernatant was completely aspirated and […] of cell-lysing solution (PGC-50 (Toyo Ink, Japan)) was added before cells were dried up. In order to the cells were lysed completely, multiwell plates were left at room temperature for 10 to 30 min. The plates were wrapped up and stored at −20° C. till the day of measurement.
3) Measurement of Samples
i) Melt the samples by putting 96 well multiplate at 37° C. and add 90 μl/well 25 mM Tris (pH 7.5).
ii) Transfer 50 μl of the sample (110 μl) to the 96 well microplate for measurement (Microlite 1 (Dynatech)).
iii) Measure the samples by the luminometer, LUMINOUS CT9000D (Dia-Yatron, Japan). We used Pickagene luminescence kit PGL2000 or LT2.0 (Toyo Ink, Japan) as substrates for luminescence measurement (50 μl/well).
4) Judgment of the Results
i) The luciferase activity of DT-C cells and DT-R cells were plotted in the graph where the relative activity and the compound concentration were expressed as Y-axis and X-axis, respectively. We judged by the degree of dissociation between the activities of DT-C cells and DT-R cells as an index.
ii) Concretely, efficacy of the compound was expressed by two values described below.
a) Among the points of concentration tested, the minimal concentration (Minimal Active Concentration: MAC), at which the activities of DT-C cells and DT-R cells dissociated, was shown as an index of efficacy of the compound.

[2] = test system: human lung adenocarcinoma A549; assay: In vitro cell growth inhibition test, MTT assay; assay type: cell-based; conditions: MTT assay 4 days after compound addition
Description: (§1) Test Example 2 In Vitro Cell Growth Inhibition Test Cells and MTT Assay
(§2) Human squamous lung cancer […], human squamous lung cancer Ma44, human lung adenocarcinoma A549, human colon cancer HT29 and human pancreas cancer PANC-1 were used.

[3] = test system: human squamous lung cancer Ma44; assay: In vitro cell growth inhibition test, MTT assay; assay type: cell-based; conditions: MTT assay 4 days after compound addition
Description: as §1, §2

[4] = test system: human squamous lung cancer RERF-RC-AI; assay: In vitro cell growth inhibition test, MTT assay; assay type: cell-based; conditions: MTT assay 4 days after compound addition
Description: as §1, §2

human colon cancer HT29 = assay: In vitro cell growth inhibition test, MTT assay; assay type: cell-based; conditions: MTT assay 4 days after compound addition
Description: as §1, §2

[5] = test system: human pancreas cancer PANC-1; assay: In vitro cell growth inhibition test, MTT assay; assay type: cell-based; conditions: MTT assay 4 days after compound addition
Description: as §1, §2

Compound	IC50, A549 [2] [µg/mL]	IC50, Ma44 [3] [µg/mL]	IC50, RERF-LC-AI [4] [µg/mL]	IC50, HT29 (human colon cancer HT29) [µg/mL]	IC50, PANC-1 [5] [µg/mL]	MAC (Minimal Active Concentration) [1] [µg/mL]
CCNC(=Nc1nc(C)ncc1CSc1nnc(-c2ccccc2NC(C)=O)o1)NCC [Compound A-25]	0.032 (≈ 0.0704 µM)	0.031 (≈ 0.0682 µM)	0.0078 (≈ 0.0172 µM)	–	–	0.370
CCNC(=Nc1ncncc1CSc1nnc(-c2ccc([N+](=O)[O-])cc2)o1)N(C)C [Compound A-190]	–	–	–	–	–	0.0412
CNC(N)=Nc1nc(C)ncc1CSc1nnc(-c2ccccc2N)o1.Cl.Cl [Compound A-5]	0.16	–	0.2	0.15	–	–
CCNC(=Nc1nc(C)ncc1COc1nnc(-c2ccccc2N)o1)NC [Compound B-2]	–	–	–	–	–	0.370
CCNC(=Nc1nc(C)ncc1CSc1nnc(-c2cccc(N)c2)o1)NCC [Compound A-41]	–	0.065 (≈ 0.158 µM)	–	0.072 (≈ 0.175 µM)	–	–
CCNC(N)=Nc1nc(C)ncc1CSc1nnc(-c2ccccc2N)o1 [Compound A-8]	0.012 (≈ 0.0312 µM)	–	0.01 (≈ 0.026 µM)	0.008 (≈ 0.0208 µM)	–	–
CCNC(N)=Nc1nc(C)ncc1CSc1nnc(-c2ccccc2NC(C)=O)o1 [Compound A-18]	–	–	0.0022 (≈ 0.00516 µM)	–	–	–
Cc1ncc(CSc2nnc(-c3ccccc3N)o2)c(N=C(N)NCc2ccccc2)n1 [Compound A-12]	–	–	0.87 (≈ 1.95 µM)	0.51 (≈ 1.14 µM)	–	–
CNC(N)=Nc1nc(C)ncc1CSc1nnc(-c2ccccc2NC(C)=O)o1 [Compound A-19]	–	–	0.02 (≈ 0.0485 µM)	–	–	–
CCNC(=Nc1nc(C)ncc1CSc1nnc(-c2ccccc2NC)o1)NC [Compound A-38]	–	0.034 (≈ 0.0824 µM)	0.014 (≈ 0.0339 µM)	0.023 (≈ 0.0558 µM)	0.028 (≈ 0.0679 µM)	0.0412
CCNC(=Nc1nc(C(F)(F)F)ncc1CSc1nnc(-c2ccccc2N)o1)NCC [Compound A-46]	–	1.8 (≈ 3.86 µM)	0.14 (≈ 0.3 µM)	0.32 (≈ 0.686 µM)	–	–
CCC(=O)Nc1ccccc1-c1nnc(SCc2cnc(C)nc2N=C(N)NC)o1 [Compound A-20]	–	–	0.02 (≈ 0.0469 µM)	–	–	–
CCNC(=Nc1nc(C)ncc1CSc1nnc(-c2ccccc2)o1)NC [Compound A-21]	–	–	0.02 (≈ 0.0522 µM)	–	–	–
CCNC(=Nc1nc(C)ncc1CSc1nnc(-c2ccccc2O)o1)NC [Compound A-27]	0.69 (≈ 1.73 µM)	1 (≈ 2.5 µM)	0.079 (≈ 0.198 µM)	–	–	–
CCNC(N)=Nc1nc(C)ncc1CSc1nnc(-c2ccccc2NC(=O)CC)o1 [Compound A-22]	–	–	0.02 (≈ 0.0454 µM)	–	–	–
CCNC(=Nc1nc(C)ncc1CSc1nnc(-c2ccccc2NCC)o1)NC [Compound A-40]	–	0.071 (≈ 0.166 µM)	–	0.049 (≈ 0.115 µM)	–	0.370
CCNC(=Nc1nc(C)ncc1CSc1nnc(-c2cc(F)ccc2N)o1)NCC [Compound A-50]	–	0.26 (≈ 0.604 µM)	0.047 (≈ 0.109 µM)	0.09 (≈ 0.209 µM)	–	–
CCCNC(=Nc1nc(C)ncc1CSc1nnc(-c2ccc(N)cc2OC)o1)NCCC [Compound A-156]	–	0.072 (≈ 0.153 µM)	0.016 (≈ 0.034 µM)	0.023 (≈ 0.0489 µM)	0.025 (≈ 0.0531 µM)	–
CCCCNC(N)=Nc1nc(C)ncc1CSc1nnc(-c2ccccc2N)o1 [Compound A-9]	0.09 (≈ 0.218 µM)	–	0.025 (≈ 0.0606 µM)	0.1 (≈ 0.242 µM)	–	–
CNC(=Nc1nc(C)ncc1CSc1nnc(-c2ccc([N+](=O)[O-])cc2)o1)NC.Cl [Compound A-159]	–	–	–	–	–	0.0412
CCNC(=Nc1nc(C)ncc1CSc1nnc(-c2ccccc2NC(=O)CC)o1)NC [Compound A-23]	0.041 (≈ 0.0902 µM)	0.025 (≈ 0.055 µM)	0.0078 (≈ 0.0172 µM)	–	–	0.123

More lines, main results first:

IC50, A549 [2] [µg/mL]	IC50, Ma44 [3] [µg/mL]	IC50, RERF-LC-AI [4] [µg/mL]	IC50, HT29 (human colon cancer HT29) [µg/mL]	IC50, PANC-1 [5] [µg/mL]	Compound	MAC (Minimal Active Concentration) [1] [µg/mL]
0.27 (≈ 0.621 µM)	0.2 (≈ 0.46 µM)	0.21 (≈ 0.483 µM)	0.1 (≈ 0.23 µM)	0.1 (≈ 0.23 µM)	CCNC(=Nc1ncncc1CSc1nnc(-c2csc([N+](=O)[O-])c2)o1)NCC [Compound D-43]	–
3.8 (≈ 8.93 µM)	4.2 (≈ 9.87 µM)	0.62 (≈ 1.46 µM)	0.072 (≈ 0.169 µM)	–	CCCc1ccc(-c2nnc(SCc3cncnc3N=C(NCC)NCC)o2)cc1 [Compound A-116]	–
0.083 (≈ 0.195 µM)	6.1 (≈ 14.3 µM)	0.053 (≈ 0.124 µM)	0.083 (≈ 0.195 µM)	0.34 (≈ 0.797 µM)	CCNC(=Nc1ncncc1CSc1nnc(-c2ccc(N(C)C)cc2)o1)NCC [Compound A-67]	–
0.18 (≈ 0.396 µM)	0.85 (≈ 1.87 µM)	–	–	0.085 (≈ 0.187 µM)	CCNC(=Nc1nc(C)ncc1CSc1nnc(-c2ccc(NC(C)=O)cc2)o1)NCC [Compound A-56]	–
0.79 (≈ 1.79 µM)	0.21 (≈ 0.476 µM)	–	0.052 (≈ 0.118 µM)	0.077 (≈ 0.174 µM)	CCNC(=Nc1nc(C)ncc1CSc1nnc(-c2ccc(OCC)cc2)o1)NCC [Compound A-101]	–
0.62 (≈ 1.5 µM)	1.2 (≈ 2.9 µM)	0.027 (≈ 0.0651 µM)	0.076 (≈ 0.183 µM)	–	CCNC(=Nc1ncncc1CSc1nnc(-c2ccc(N)cc2)o1)NCCO [Compound A-113]	–
0.11 (≈ 0.21 µM)	0.091 (≈ 0.174 µM)	–	0.064 (≈ 0.122 µM)	0.086 (≈ 0.164 µM)	CCNC(=Nc1nc(C)ncc1CSc1nnc(-c2ccc(I)cc2)o1)NCC [Compound A-105]	–
3.5 (≈ 8.76 µM)	3.1 (≈ 7.76 µM)	0.013 (≈ 0.0325 µM)	0.013 (≈ 0.0325 µM)	–	CCNC(=Nc1ncncc1CSc1nnc(-c2cnc(C)cn2)o1)NCC [Compound D-32]	–
0.32 (≈ 0.778 µM)	0.83 (≈ 2.02 µM)	0.029 (≈ 0.0705 µM)	0.045 (≈ 0.109 µM)	–	CCNC(=Nc1ncncc1CSc1nnc(-c2ccc(CC)cc2)o1)NCC [Compound A-114]	1.11
0.028 (≈ 0.0605 µM)	0.17 (≈ 0.367 µM)	0.012 (≈ 0.0259 µM)	0.014 (≈ 0.0302 µM)	–	CCNC(=Nc1ncncc1CSc1nnc(-c2ccc([N+](=O)[O-])cc2Cl)o1)NCC [Compound A-126]	0.0137
–	0.024 (≈ 0.0556 µM)	0.0078 (≈ 0.0181 µM)	–	0.017 (≈ 0.0394 µM)	CCNC(=Nc1nc(C)ncc1CSc1nnc(-c2ccc(Cl)cc2)o1)NCC [Compound A-62]	0.0412
4.6 (≈ 10.8 µM)	5.8 (≈ 13.6 µM)	0.43 (≈ 1.01 µM)	0.065 (≈ 0.153 µM)	–	CCNC(=Nc1ncncc1CSc1nnc(-c2ccc(C(C)C)cc2)o1)NCC [Compound A-115]	–
1.1 (≈ 2.59 µM)	8.6 (≈ 20.2 µM)	0.16 (≈ 0.376 µM)	0.017 (≈ 0.04 µM)	–	CCNC(=Nc1ncncc1CSc1nnc(-c2ccc(C(C)=O)cc2)o1)NCC [Compound A-117]	–
4.6 (≈ 10.2 µM)	1.5 (≈ 3.34 µM)	2.5 (≈ 5.56 µM)	0.025 (≈ 0.0556 µM)	–	CCNC(=Nc1ncncc1CSc1nnc(-c2ccc(-n3cccc3)nc2)o1)NCC [Compound D-35]	–
0.097 (≈ 0.198 µM)	0.4 (≈ 0.817 µM)	0.017 (≈ 0.0347 µM)	0.035 (≈ 0.0715 µM)	–	C=C(Br)CNC(=Nc1ncncc1CSc1nnc(-c2ccc(N)cc2)o1)NCC [Compound A-111]	0.123

— patent US6420367B1, “Pyrimidine derivatives exhibiting antitumor activity” (Shionogo & Co., Ltd., priority 1998, dated 2002)
